Data taken from PubChem BioAssay AID2060620 (Molecular Pharmacology Branch, DTP, NCI, 2025).

System: 328373-195-R-J1-PDC complex spheroids, viability % test/control
Experiment: Anticancer human tumor 328373-195-R-J1-PDC patient-derived head and neck squamous carcinoma cell line growth inhibition [CLK]
Details: for IC50: curve of first compound; for viability, T/C: stronger effect = lower value
Procedure, shortened: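 Patient-derived tumor cells grown as complex spheroids with HUVEC endothelial cells and mesenchymal stem cells, treated with drug combinations. Concentrations descend in half-log steps from near clinical Cmax, or from 10 microM if Cmax unknown.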

[1] = second compound 0.0316 µM, first compound 0.0316 µM
[2] = second compound 0.0316 µM, first compound 0.1 µM
[3] = second compound 0.0316 µM, first compound 0.316 µM
[4] = second compound 0.0316 µM, first compound 1 µM
[5] = second compound 0.0316 µM, first compound 3.16 µM
[6] = second compound 0.0316 µM, first compound 10 µM
[7] = second compound 0.1 µM, first compound 0.0316 µM
[8] = second compound 0.1 µM, first compound 0.1 µM
[9] = second compound 0.1 µM, first compound 0.316 µM
[10] = second compound 0.1 µM, first compound 1 µM
[11] = second compound 0.1 µM, first compound 3.16 µM
[12] = second compound 0.1 µM, first compound 10 µM
[13] = second compound 0.316 µM, first compound 0.0316 µM
[14] = second compound 0.316 µM, first compound 0.1 µM
[15] = second compound 0.316 µM, first compound 0.316 µM
[16] = second compound 0.316 µM, first compound 1 µM
[17] = second compound 0.316 µM, first compound 3.16 µM
[18] = second compound 0.316 µM, first compound 10 µM
[19] = second compound 1 µM, first compound 0.0316 µM
[20] = second compound 1 µM, first compound 0.1 µM
[21] = second compound 1 µM, first compound 0.316 µM
[22] = second compound 1 µM, first compound 1 µM
[23] = second compound 1 µM, first compound 3.16 µM
[24] = second compound 1 µM, first compound 10 µM
[25] = second compound 3.16 µM, first compound 0.0316 µM
[26] = second compound 3.16 µM, first compound 0.1 µM
[27] = second compound 3.16 µM, first compound 0.316 µM
[28] = second compound 3.16 µM, first compound 1 µM
[29] = second compound 3.16 µM, first compound 3.16 µM
[30] = second compound 3.16 µM, first compound 10 µM
[31] = second compound 10 µM, first compound 0.0316 µM
[32] = second compound 10 µM, first compound 0.1 µM
[33] = second compound 10 µM, first compound 0.316 µM
[34] = second compound 10 µM, first compound 1 µM
[35] = second compound 10 µM, first compound 3.16 µM
[36] = second compound 10 µM, first compound 10 µM
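Note: spheroids exposed to the agents for 7 days.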

`C#Cc1c(F)ccc2cc(O)cc(-c3ncc4c(N5CC6CCC(C5)N6)nc(OCC56CCCN5CC(F)C6)nc4c3F)c12` (centres undefined) + CN1CCN(c2cc(C(=O)Nc3cc4cc(-c5cnn(C)c5)ccc4cn3)ccn2)CC1 gave an IC50 (second compound 0.0316 µM) greater than 10 µM, an IC50 (second compound 0.1 µM) greater than 10 µM and an IC50 (second compound 0.316 µM) of less than 0.0316 µM. The IC50 (second compound 1 µM) was less than 0.0316 µM, the IC50 (second compound 3.16 µM) was less than 0.0316 µM and the IC50 (second compound 10 µM) was less than 0.0316 µM. It also gave a viability, T/C [1] of 92.8%, a viability, T/C [2] of 88% and a viability, T/C [3] of 109%. The viability, T/C [4] was 93.9%, the viability, T/C [5] was 103% and the viability, T/C [6] was 81.5%. The viability, T/C [7] was 80.8%, the viability, T/C [8] was 85.2% and the viability, T/C [9] was 80.1%. The viability, T/C [10] was 83.2%, the viability, T/C [11] was 88.8% and the viability, T/C [12] was 62.4%. It also gave a viability, T/C [13] of 34%, a viability, T/C [14] of 34.8% and a viability, T/C [15] of 30.9%. For the same compound, the viability, T/C [16] was 39.2%, the viability, T/C [17] was 32.8% and the viability, T/C [18] was 16.9%. The viability, T/C [19] was 0.24%, the viability, T/C [20] was 0.32% and the viability, T/C [21] was 1.75%. The viability, T/C [22] was 0.29%, the viability, T/C [23] was 0.2% and the viability, T/C [24] was 2.89%. The viability, T/C [25] was 0.63%, the viability, T/C [26] was 2.27% and the viability, T/C [27] was 3.6%. For the same compound, the viability, T/C [28] was 0.18%, the viability, T/C [29] was 0.13% and the viability, T/C [30] was 0.34%. For the same compound, the viability, T/C [31] was 1.89%, the viability, T/C [32] was 0.19% and the viability, T/C [33] was 0.24%. The viability, T/C [34] was 0.19%, the viability, T/C [35] was 0.19% and the viability, T/C [36] was 1.27%.

With `C=CC(=O)N1CCN(c2nc(=O)n(-c3c(C)ccnc3C(C)C)c3nc(-c4c(O)cccc4F)c(F)cc23)C(C)C1` (centres undefined) + CNC(=O)c1ccc(Nc2nc(OC3CCCC3)c3c(-c4ccc5nc(C)oc5c4)c[nH]c3n2)c(OC)c1 the IC50 (second compound 0.0316 µM) was greater than 10 µM, the IC50 (second compound 0.1 µM) was less than 0.0316 µM and the IC50 (second compound 0.316 µM) was less than 0.0316 µM. The IC50 (second compound 1 µM) was less than 0.0316 µM, the IC50 (second compound 3.16 µM) was less than 0.0316 µM and the IC50 (second compound 10 µM) was less than 0.0316 µM. The viability, T/C [1] was 57.3%, the viability, T/C [2] was 59.7% and the viability, T/C [3] was 60.2%. It also gave a viability, T/C [4] of 64.9%, a viability, T/C [5] of 65.1% and a viability, T/C [6] of 47.7%. For the same compound, the viability, T/C [7] was 11.2%, the viability, T/C [8] was 10.2% and the viability, T/C [9] was 11.6%. For the same compound, the viability, T/C [10] was 12.8%, the viability, T/C [11] was 13.2% and the viability, T/C [12] was 9.6%. It also gave a viability, T/C [13] of 8.33%, a viability, T/C [14] of 10.6% and a viability, T/C [15] of 9.38%. For the same compound, the viability, T/C [16] was 10.4%, the viability, T/C [17] was 13.9% and the viability, T/C [18] was 10.3%. The viability, T/C [19] was 10.1%, the viability, T/C [20] was 9.55% and the viability, T/C [21] was 9.73%. For the same compound, the viability, T/C [22] was 10.4%, the viability, T/C [23] was 13.2% and the viability, T/C [24] was 8.42%. For the same compound, the viability, T/C [25] was 10.1%, the viability, T/C [26] was 13.2% and the viability, T/C [27] was 10.9%. For the same compound, the viability, T/C [28] was 10.9%, the viability, T/C [29] was 15.1% and the viability, T/C [30] was 10.7%. For the same compound, the viability, T/C [31] was 12.8%, the viability, T/C [32] was 11.7% and the viability, T/C [33] was 12.2%. It also gave a viability, T/C [34] of 13.3%, a viability, T/C [35] of 14.5% and a viability, T/C [36] of 8.55%.
